Our source for the Ki values is patent publication US9365583B2, “Substituted pyrazoles and uses thereof” (Genentech, Inc., priority 2013, dated 2016).

pKi: −log10 of the molar value.

The assay addresses T1, N-terminally GST-tagged DLK (catalytic domain amino acid 1-520) (Homo sapiens, UniProt Q12852).
T1 construct: N-terminally GST-tagged DLK (catalytic domain amino acid 1-520); purchased Carna Bioscience
T1 sequence (Q12852 1-520): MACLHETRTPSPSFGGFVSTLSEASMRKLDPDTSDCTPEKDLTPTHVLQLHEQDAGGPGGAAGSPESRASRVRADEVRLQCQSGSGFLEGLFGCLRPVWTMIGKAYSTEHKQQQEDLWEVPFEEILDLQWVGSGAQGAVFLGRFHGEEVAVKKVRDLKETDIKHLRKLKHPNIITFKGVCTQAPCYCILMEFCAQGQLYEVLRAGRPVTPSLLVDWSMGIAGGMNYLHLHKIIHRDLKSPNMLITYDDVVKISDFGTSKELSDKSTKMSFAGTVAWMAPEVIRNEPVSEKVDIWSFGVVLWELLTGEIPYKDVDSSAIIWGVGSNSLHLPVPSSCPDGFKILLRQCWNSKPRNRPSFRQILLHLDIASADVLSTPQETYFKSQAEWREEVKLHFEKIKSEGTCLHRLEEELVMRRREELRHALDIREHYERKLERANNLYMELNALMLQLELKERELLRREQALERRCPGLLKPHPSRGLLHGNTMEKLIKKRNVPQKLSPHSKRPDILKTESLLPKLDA
As to the kind of experiment: DLK TR-FRET inhibition assay. The assay is classed as biochemical. The settings on record: 5 nM GST-DLK, 40 nM HIS-MKK4 K131M substrate, 30 μM ATP, 60 minutes at ambient temperature. In a few lines: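 Phosphorylated MKK4 was quantified by TR-FRET (Eu-labelled anti-phospho-MKK4, D2 anti-HIS; 3 h, 665 and 615 nm emission) after EDTA quench. Reactions held 5 nM GST-tagged DLK catalytic domain (1-520), 40 nM HIS-MKK4 K131M substrate, 30 μM ATP and compound (3-fold series from 20 uM), 60 min, room temperature, pH 7.5.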
On the technique in general: Time-resolved FRET reads energy transfer from a long-lived donor to a nearby acceptor.
As usually defined, the pKi is −log10 of the Ki, conventionally taken in molar units. A lower pKi goes with a large Ki. For the compound `CC(C)n1nc(-c2cnc(N)c(C(F)(F)F)c2)cc1[C@@H]1[C@H]2CC3C(OCCN3C)[C@H]21` (mixture of isomers) [compound 156, (±)-5-(1-isopropyl-5-(4-methyl-octahydro-2H-cyclopropa[4,5]cyclopenta[1,2-b][1,4]oxazin-6-yl)-1H-pyrazol-3-yl)-3-(trifluoromethyl)pyridin-2-amine], the pKi was 7.87.

`CC(C)n1nc(-c2cnc(N)c(C(F)(F)F)c2)cc1[C@H]1[C@@H]2C[C@H](N3CCN(C)CC3)C[C@@H]21` [compound 63, 5-(1-isopropyl-5-((1R,3r,5S,6r)-3-(4-methylpiperazin-1-yl)bicyclo [3.1.0]hexan-6-yl)-1H-pyrazol-3-yl)-3-(trifluoromethyl)pyridin-2-amine]: the pKi was 8.66.

Take `CO[C@H]1C[C@@H]2[C@H](C1)[C@H]2c1cc(-c2cnc(N)c(OC(F)F)c2)nn1C(C)C` [compound 187, 3-(difluoromethoxy)-5-(1-isopropyl-5-((1R,3r,5S,6r)-3-methoxy-bicyclo[3.1.0]hexan-6-yl)-1H-pyrazol-3-yl)pyridin-2-amine]: the pKi was 8.66.

`CC(C)n1nc(-c2cnc(N)c(C(F)(F)F)c2)cc1[C@H]1[C@@H]2C[C@H](N3CC4(CCCO4)C3)C[C@@H]21` [compound 227, 5-(5-((1R,3r,5S,6r)-3-(5-oxa-2-azaspiro[3.4]octan-2-yl)bicyclo [3.1.0]hexan-6-yl)-1-isopropyl-1H-pyrazol-3-yl)-3-(trifluoro-methyl)pyridin-2-amine] had a pKi of 8.35.

Consider `CC(C)n1nc(-c2cnc(N)c(OC(F)F)c2)cc1[C@H]1[C@@H]2C[C@H](N3CCN(CC(F)F)CC3)C[C@@H]21` [compound 264, 5-(5-((1R,3r,5S,6r)-3-(4-(2,2-difluoroethyl)piperazin-1-yl)bicyclo [3.1.0]hexan-6-yl)-1-isopropyl-1H-pyrazol-3-yl)-3-(difluoromethoxy)pyridin-2-amine], for which the pKi is 8.74. This pKi lies 0.39 log units higher than the previous one.

For the compound `CC(C)n1nc(-c2cnc(N)c(OC(F)F)c2)cc1[C@H]1[C@@H]2C[C@@H](N3CCOC[C@@H]3C)C[C@@H]21` [compound 79, 3-(difluoromethoxy)-5-(1-isopropyl-5-((1R,3s,5S,6S)-3-((S)-3-methylmorpholino)bicyclo[3.1.0]hexan-6-yl)-1H-pyrazol-3-yl) pyridin-2-amine], the negative logarithm of the Ki (pKi) is 8.96.

The compound `CC(C)n1nc(-c2cnc(N)c(C(F)(F)F)c2)cc1[C@H]1[C@@H]2C[C@@H](N3CCN[C@@H](C)C3)C[C@@H]21` [compound 235, 5-(1-isopropyl-5-((1R,3s,5S,6S)-3-((S)-3-methylpiperazin-1-yl)bicyclo[3.1.0]hexan-6-yl)-1H-pyrazol-3-yl)-3-(trifluoromethyl) pyridin-2-amine] had a pKi of 8.42.

The compound `CC(C)n1nc(-c2cnc(N)c(C(F)(F)F)c2)cc1[C@H]1[C@@H]2C[C@H](N)C[C@@H]21` [compound 269, 5-(5-((1R,3r,5S,6r)-3-amino-bicyclo[3.1.0]hexan-6-yl)-1-isopropyl-1H-pyrazol-3-yl)-3-(trifluoro-methyl)pyridin-2-amine] showed a pKi of 8.39. The pKi values of the last two compounds are within 0.2 log units of each other.

`CC(C)n1nc(-c2cnc(N)c(OC(F)F)c2)cc1[C@H]1[C@@H]2CC(F)(F)C[C@@H]21` [compound 216, 5-(5-((1R,5S,6r)-3,3-difluorobicyclo [3.1.0]hexan-6-yl)-1-isopropyl-1H-pyrazol-3-yl)-3-(difluoro-methoxy)pyridin-2-amine] gave a pKi of 8.18.

`CC(C)n1nc(-c2cnc(N)c(C(F)(F)F)c2)cc1[C@H]1[C@@H]2C[C@H](N3CCS(=O)(=O)CC3)C[C@@H]21` [compound 10, 4-((1R,3r,5S,6r)-6-(3-(6-amino-5-(trifluoromethyl)pyridin-3-yl)-1-isopropyl-1H-pyrazol-5-yl)bicyclo[3.1.0]hexan-3-yl)thio-morpholine 1,1-dioxide] gave a pKi of 8.48.

With `COC1CN([C@@H]2C[C@@H]3[C@H](C2)[C@H]3c2cc(-c3cnc(N)c(OC(F)(F)F)c3)nn2C(C)C)C1` [compound 38, 5-(1-isopropyl-5-((1R,3s,5S,6r)-3-(3-methoxyazetidin-1-yl)bicyclo[3.1.0]hexan-6-yl)-1H-pyrazol-3-yl)-3-(trifluoromethoxy) pyridin-2-amine], the pKi was 8.84.
